Assay results published in patent publication US20050020519A1, “Modulation of insulin-regulated aminopeptidase (irap)/angiotensin iv (at4) receptor activity” (priority 2001, published 2005).
Where no end group is shown, it is not given here.

Columns and labels:
rats [1] = test: Passive avoidance, scopolamine-induced amnesia; type: in vivo, rat
Description: Passive avoidance trials were then used to test the effect of modulation of AT4 receptor/IRAP activity on aversive conditioning behaviour in amnesic animals. The passive avoidance task involves aversive conditioning behaviour to measure facilitation of memory retention and retrieval. The testing was carried out in an apparatus that consisted of a light and a dark compartment separated by a guillotine door. The floor of the dark compartment contained an electrified grid.
Rats were surgically implanted with chronic cannulae in the lateral ventricle. On conditioning day, the animals were habituated in the dark compartment for 5 min with the guillotine door closed. The animals were then placed in their home cages for 5 min before being placed in the light compartment with the guillotine door opened. The latency to enter the dark compartment with all four feet was documented. When the rats entered the dark compartment within 20 s of being placed in the light compartment, they were randomly divided into four treatment groups. The treatment groups were: • (1) saline followed by saline; • (2) saline followed by 1.0 nmole […] (SEQ ID NO:2); • (3) 70 nmole scopolamine followed by saline; and • (4) 70 nmole scopolamine followed by 1.0 nmole […] (SEQ ID NO:2).
All of these were administered into the cerebral ventricles 30 min and 5 min before the acquisition trial. […]

mice = test: Y maze spatial memory, normal mice; type: in vivo, mouse
Description: The Y maze consists of three identical alleys (30 cm in length, 10 cm in width and 17 cm in height) with the three arms separated by 120° angles. To minimize stress, the maze is located in a sound-attenuated room under dim illumination, with the floor of the maze covered with sawdust. After each trial, the sawdust is mixed to eliminate olfactory cues. For spatial orientation, visual cues are placed on the walls of the testing room.
The test consisted of two trials, separated by a time interval known as the intertrial interval. During the acquisition trial, the animals were placed at the distal end of one arm, their heads pointing away from the centre of the maze. The mice were allowed to visit only two accessible arms of the maze for 3 minutes. At the end of the acquisition trial, the mice were replaced in their cages for the intertrial interval. During the retention trial, the animals had access to all three arms for 5 minutes. The number and duration of time spent in the novel arm were documented.
A shorter intertrial interval (2 hours) separating the acquisition phase from the retention phase enables amnesiant effects to be detected. Control mice still remember the location of the novel arm and will preferentially spend more time (45-50% of time) in that arm.
Mice were surgically implanted with an infusion cannula in the dorsal third ventricle. […]

IRAP = molecular target: T1, IRAP (Homo sapiens, UniProt Q9UIQ6); test: Degradation of peptides by IRAP expressed in HEK 293T cells, HPLC with mass spectrometric detection; type: biochemical
T1 construct: expressed in transfected cells; host or cells: HEK 293T cells (solubilised membrane protein)
Description: At each time point (0, 0.5, 1, 2, 4 & 6 hr), an aliquot containing 5 μg peptide was removed, and the reaction stopped by addition of 4 volumes methanol/1% trifluoroacetic acid (TPA). Samples were dried on a centrifugal vacuum evaporator prior to HPLC analysis with on-line mass spectrometric detector. […] Fragments were identified following mass spectral analysis, using Agilent ChemStation deconvolution software.

rats [2] = test: Morris water maze, scopolamine-induced amnesia; type: in vivo, rat; conditions: 1 nmole icv after 70 nmole scopolamine
From the text: The maze consisted of a circular tank, 1.6 m in diameter by 0.6 m in height, containing water to a depth of 30 cm. The room contained visual cues placed 40 cm from the edge of the tank. The rats were subjected to two days of familiarisation to the task, during which the escape pedestal is visible to the animals. During the acquisition phase, for the following 5 days, the water in the tank was rendered opaque, and the escape platform was submerged under the surface of the water. The animals had to rely on the visual cues around the room to find the submerged escape pedestal. The latency of the animal in finding the pedestal during the acquisition phase was taken as a measure of the spatial memory performance of the animal.
Rats were surgically implanted with cannulae in their lateral ventricles and allowed two to three days of recovery. During the familiarisation trials on days 1 and 2, the animals were placed in the water facing the wall of the tank from different starting positions equidistant from the escape pedestal. When the animals located and mounted the pedestal, they were allowed 30 seconds on the pedestal before the commencement of the next trial. Four consecutive trials were carried out on each animal on each day, and the mean latency period before the animal reached the pedestal was plotted. […]

rat hippocampal slices = test: Potassium-evoked ^3H-choline release from rat hippocampal slices; type: cell-based; conditions: at 10^−7M
Description: To determine the effect of IRAP inhibitors an acetylcholine release for rat hippocampal slices in vitro, rats were anaesthetized with sodium pentobarbitone, decapitated and the brain rapidly extracted and put on ice. The two sides of the hippocampus were then dissected, and stored in Krebs buffer on ice. The tissues were sectioned into 400 μm slices using a McI1wain slicer, and incubated with 10 μM of ^3H-choline in Krebs buffer for 20 min at 37° C. Following the incubation, the sections were transferred to Brandel superfusion chambers filled with carbogenated Krebs buffer, pH7.0 containing […] hemicholinium HC-3 to prevent choline reuptake. The slices were washed for 60 min at 37° C. with Krebs buffer at a flow rate of 500 μl/min. Superfusate samples were collected at 5 min intervals for the duration of the experiment. After a stable baseline was established, the hippocampal slices were depolarised by the addition of 30 mM KCl to the Krebs buffer and infused for 4 min (stimulation period S1). The tissue was then allowed to recover for 25 min before the next stimulation period (S2). To test the effect of […] […] Fractional ^3H-choline release, expressed as a ratio of S2/S1, was then calculated for each of the different peptides at the different doses.

T1 sequence (Q9UIQ6 whole entry): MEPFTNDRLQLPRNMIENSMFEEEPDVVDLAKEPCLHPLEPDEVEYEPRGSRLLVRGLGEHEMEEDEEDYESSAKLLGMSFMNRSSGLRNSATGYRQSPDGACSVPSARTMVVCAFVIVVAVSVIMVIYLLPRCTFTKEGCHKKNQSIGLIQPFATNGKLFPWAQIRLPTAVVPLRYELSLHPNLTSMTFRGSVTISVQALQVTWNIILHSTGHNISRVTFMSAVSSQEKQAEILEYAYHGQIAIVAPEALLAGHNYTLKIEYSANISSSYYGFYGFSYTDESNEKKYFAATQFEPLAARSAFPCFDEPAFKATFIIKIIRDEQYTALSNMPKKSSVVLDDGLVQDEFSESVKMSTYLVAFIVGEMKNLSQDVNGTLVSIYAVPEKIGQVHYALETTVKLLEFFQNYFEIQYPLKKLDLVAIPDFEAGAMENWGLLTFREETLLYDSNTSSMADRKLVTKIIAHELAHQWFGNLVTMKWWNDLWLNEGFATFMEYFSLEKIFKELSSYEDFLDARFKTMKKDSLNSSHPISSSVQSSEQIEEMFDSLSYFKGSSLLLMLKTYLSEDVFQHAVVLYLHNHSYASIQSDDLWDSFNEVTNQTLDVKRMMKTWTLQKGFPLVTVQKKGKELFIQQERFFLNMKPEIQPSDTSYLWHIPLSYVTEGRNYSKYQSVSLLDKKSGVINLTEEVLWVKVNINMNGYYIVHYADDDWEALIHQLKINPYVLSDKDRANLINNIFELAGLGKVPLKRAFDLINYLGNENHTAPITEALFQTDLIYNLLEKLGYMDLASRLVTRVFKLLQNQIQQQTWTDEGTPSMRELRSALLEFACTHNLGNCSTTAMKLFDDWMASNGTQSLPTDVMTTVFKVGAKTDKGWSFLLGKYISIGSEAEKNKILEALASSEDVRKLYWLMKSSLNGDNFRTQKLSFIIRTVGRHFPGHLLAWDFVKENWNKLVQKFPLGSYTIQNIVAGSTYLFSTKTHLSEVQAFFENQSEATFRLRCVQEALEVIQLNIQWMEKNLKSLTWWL

## LVVYPWTQRF
Rats [1]; 1.0 nmole icv after 70 nmole scopolamine
  latency to re-enter the dark compartment: not significantly different from controls
Rats [1]; 1.0 nmole icv alone (after saline)
  latency to re-enter the dark compartment: comparable to the scopolamine-treated group
mice; after 6 days of infusion at 0.3 pmol/h
  time in novel arm versus control mice: indistinguishable from each other
mice; after three days of infusion at 0.3 pmol/h, 6 h intertrial interval, control approximately 33%
  time spent in the novel arm: 50-60 % of time
IRAP; 37° C., hIRAP transfected HEK 293T membranes, (=UT) equals untransfected control cells
  Substrate disappearance over 4 hr: 14% (=UT)
IRAP; incubation at 37° C. with solubilized membrane protein from hIRAP transfected HEK 293T cells
  Products Identified: VVYPWTQRF
Rats [2]
  latency in locating the submerged pedestal: reversed the scopolamine-induced latency
Rat hippocampal slices
  maximum effect on potassium-evoked ^3H-choline release: 180 % of control
